Measured values: paper PMC10341786 (International Journal of Molecular Sciences, 2023)

Experiments:
[1] = in vitro; conditions: pig
[2] = in vitro; conditions: pig; remark: listed apart in the source
[3] = test system: TBEV; assay: microbe, parasite or virus in culture; type: cell-based, Tick-borne encephalitis virus strain Absettarov; conditions: Tick-borne encephalitis virus, PEK, read-out: TBEV EC50
[4] = in vitro; conditions: African green monkey
[5] = in vitro; conditions: African green monkey; remark: listed apart in the source
[6] = test system: WNV; assay: microbe, parasite or virus in culture; type: cell-based, West Nile virus strain Strix nebulosa-12; conditions: West Nile virus, Vero, read-out: WNV EC50

Which CC50 [1] does the source give for CS(=O)(=O)NC1=NOC2(CCCCCCC2)C1 [3a] here?
The CC50 was > 50 µM.

What about the CC50 [2] of the same compound?
Its CC50 is > 50 µM.

What about the EC50 [3] of the same compound?
Its EC50 is > 100 µM.

What about the CC50 [4] of the same compound?
The CC50 was > 50 µM.

And the CC50 [5]?
The CC50 was > 50 µM.

What about the EC50 [6] of the same compound?
Its EC50 is 31 ± 2 µM.

For O=S(=O)(NC1=NOC2(CCCCCCC2)C1)c1ccccc1 [3c], which CC50 [1] is on record?
Its CC50 is > 50 µM.

What about the CC50 [2] of the same compound?
The CC50 was > 50 µM.

And the EC50 [3]?
The EC50 was > 50 µM.

And the CC50 [4]?
Its CC50 is > 50 µM.

And the CC50 [5]?
The CC50 was > 50 µM.

What about the EC50 [6] of the same compound?
Its EC50 is 25 ± 7 µM.

With Cc1ccc(S(=O)(=O)NC2=NOC3(CCCCCCC3)C2)cc1 [3d] as the compound, how does the CC50 [1] read?
The CC50 was > 50 µM.

And the CC50 [2]?
The CC50 was > 50 µM.

What about the EC50 [3] of the same compound?
Its EC50 is > 50 µM.

What about the CC50 [4] of the same compound?
Its CC50 is > 50 µM.

What about the CC50 [5] of the same compound?
Its CC50 is > 50 µM.

What about the EC50 [6] of the same compound?
The EC50 was 14 ± 5 µM.

With Cc1cc(C)c(S(=O)(=O)NC2=NOC3(CCCCCCC3)C2)c(C)c1 [3e] as the compound, how does the CC50 [1] read?
The CC50 was > 50 µM.

And the CC50 [2]?
Its CC50 is > 50 µM.

What about the EC50 [3] of the same compound?
Its EC50 is 18 ± 7 µM.

And the CC50 [4]?
The CC50 was > 50 µM.

And the CC50 [5]?
The CC50 was > 50 µM.

And the EC50 [6]?
The EC50 was 22 ± 4 µM.

What does the source list for O=S(=O)(NC1=NOC2(CCCCCCC2)C1)c1ccc2c(c1)OCCO2 [3f]?
CC50 [1]: > 50 µM; CC50 [2]: > 50 µM; EC50 [3]: > 50 µM; CC50 [4]: > 50 µM; CC50 [5]: > 50 µM; EC50 [6]: 18 ± 6 µM

With O=S(=O)(NC1=NOC2(CCCCCCC2)C1)c1ccc(F)cc1F [3g] as the compound, how does the CC50 [1] read?
Its CC50 is > 50 µM.

What about the CC50 [2] of the same compound?
Its CC50 is > 50 µM.

And the EC50 [3]?
Its EC50 is > 100 µM.

And the CC50 [4]?
The CC50 was > 50 µM.

And the CC50 [5]?
Its CC50 is > 50 µM.

And the EC50 [6]?
The EC50 was 28.4 ± 2.2 µM.

Which results are given for O=[N+]([O-])c1ccccc1S(=O)(=O)NC1=NOC2(CCCCCCC2)C1 [3h]?
CC50 [1]: > 50 µM; CC50 [2]: > 50 µM; EC50 [3]: 28 ± 7 µM; CC50 [4]: > 50 µM; CC50 [5]: > 50 µM; EC50 [6]: 21.5 ± 0.9 µM

With O=S(=O)(NC1=NOC2(CCCCCCC2)C1)c1cccs1 [3k] as the compound, how does the CC50 [1] read?
Its CC50 is > 50 µM.

What about the CC50 [2] of the same compound?
Its CC50 is > 50 µM.

And the EC50 [3]?
Its EC50 is > 100 µM.

What about the CC50 [4] of the same compound?
The CC50 was > 50 µM.

And the CC50 [5]?
Its CC50 is > 50 µM.

And the EC50 [6]?
Its EC50 is 6.1 ± 1.3 µM.

Which results are given for O=S(=O)(NC1=NOC2(CCCCCCC2)C1)c1cccnc1 [3l]?
CC50 [1]: > 50 µM; CC50 [2]: > 50 µM; EC50 [3]: > 100 µM; CC50 [4]: > 50 µM; CC50 [5]: > 50 µM; EC50 [6]: 11 ± 7 µM

What does the source list for CS(=O)(=O)N(C1=NOC2(CCCCCCC2)C1)S(C)(=O)=O [4a, N-(Methylsulfonyl)-N-(1-oxa-2-azaspiro[4.7]dodec-2-en-3-yl)methanesulfonamide]?
CC50 [1]: > 50 µM; CC50 [2]: > 50 µM; EC50 [3]: 27 ± 12 µM; CC50 [4]: > 50 µM; CC50 [5]: > 50 µM; EC50 [6]: 10 ± 6 µM; melting point: 139 to 141 °C

Which CC50 [1] does the source give for O=S(=O)(Cc1ccccc1)N(C1=NOC2(CCCCCCC2)C1)S(=O)(=O)Cc1ccccc1 [4b, N-(Benzylsulfonyl)-1-phenyl-N-(1-oxa-2-azaspiro[4.7]dodec-2-en-3-yl)methanesulfonamide] here?
Its CC50 is > 50 µM.

What about the CC50 [2] of the same compound?
Its CC50 is > 50 µM.

And the EC50 [3]?
Its EC50 is > 50 µM.

And the CC50 [4]?
Its CC50 is > 50 µM.

What about the CC50 [5] of the same compound?
Its CC50 is > 50 µM.

What about the EC50 [6] of the same compound?
Its EC50 is 16 ± 8 µM.

What about the melting point of the same compound?
The melting point was 176 to 177 °C.

Which results are given for O=S(=O)(c1ccccc1)N(C1=NOC2(CCCCCCC2)C1)S(=O)(=O)c1ccccc1 [4c, N-(Phenylsulfonyl)-N-(1-oxa-2-azaspiro[4.7]dodec-2-en-3-yl)benzenesulfonamide]?
CC50 [1]: > 50 µM; CC50 [2]: > 50 µM; EC50 [3]: 9 ± 2 µM; CC50 [4]: > 50 µM; CC50 [5]: > 50 µM; EC50 [6]: 2.6 ± 1.4 µM; melting point: 139 to 141 °C

Which results are given for O=[N+]([O-])c1ccccc1S(=O)(=O)N(C1=NOC2CCCCCCC12)S(=O)(=O)c1ccccc1[N+](=O)[O-] (stereo not shown) [5h, 2-Nitro-N-((2-nitrophenyl)sulfonyl)-N-(3a,4,5,6,7,8,9,9a-octahydrocycloocta[d]isoxazol-3-yl)benzenesulfonamide]?
CC50 [1]: > 50 µM; CC50 [2]: > 50 µM; EC50 [3]: 12 ± 6 µM; EC50 [6]: 17 ± 3 µM; melting point: 153 to 154 °C

For NC(=O)c1nc(F)c[nH]c1=O [Favipiravir, reference compound], which CC50 [2] is on record?
Its CC50 is > 1000 µM.

And the CC50 [4]?
The CC50 was > 1000 µM.

And the CC50 [5]?
The CC50 was > 1000 µM.

What about the EC50 [6] of the same compound?
The EC50 was 102 ± 28 µM.

Which results are given for Nc1onc(C(=O)OCC23CC4CC(CC(C4)C2)C3)c1CCc1ccccc1 [compound 6, reference compound]?
CC50 [1]: > 100 µM; CC50 [2]: > 100 µM; EC50 [3]: 2.29 ± 0.17 µM; CC50 [4]: > 100 µM
